According to US20220040133A1:

What was measured:
Human H460 NSCLC cells = assay: Oral efficacy in human H460 NSCLC xenografts in mice; assay type: in vivo; conditions: H460 xenograft, CD1-Nu/Nu mice; oral gavage 100 mg/kg on day 8, 15, 22, 29; vs 5% dextrose or untreated; FIG. 1
Description: Human H460 NSCLC cells were obtained from American Type Cell Culture (ATCC) (catalog no. HTB-177, Manassas, Va.). These cells tested negative for viral contamination using the Mouse Antibody Production (MAP) test, performed by Charles River Labs Molecular Division, upon the receipt of the tumor cells from ATCC. The tumor cells were maintained at 37° C. in a humidified 5% CO2 atmosphere in T225 tissue culture flasks containing 50 mL of Roswell Park Memorial Institute (RPMI)-1640 solution with 10% Fetal Bovine Serum (FBS) and 2 mM L-glutamine. Cells were split at a ratio of 1:10 every 2-3 days by trypsinization and resuspended in fresh medium in a new flask. Cells were harvested for experiments in the same way at 70-90% confluency.
CD1-Nu/Nu female mice, ˜4-6 weeks old were obtained from Charles River Laboratories. Mice were housed 5 to a cage in a micro-isolator room in the Department of Animal Laboratory Research of New York State University (SUNY) at Stony Brook. Light-dark cycles were 12 h each daily, with light from 7 a.m. to 7 p.m. […]
An acclimation period of 7 days was allowed between the arrival of the animal at the study site before tumor inoculation and experimentation. […] Tumor dimensions (length and width) were measured daily before, during and after treatment (using Vernier calipers) and the tumor volume was calculated using the prolate ellipsoid formula: (length×width^2)/2. […]

[1] = tested on: BxPC3 pancreatic cancer cells; assay: Oral efficacy in human BxPC3 pancreatic cancer xenografts in mice; assay type: in vivo; parameters: dose or concentration left out as unconfirmed; conditions: BxPC3 xenograft, CD-1 nude mice; oral dose for 4 weeks; FIG. 2
Description: CD1-Nu/Nu female mice, ˜4-6 weeks old were obtained from Charles River Laboratories. Mice were housed 5 to a cage in a micro-isolator room in the Department of Animal Laboratory Research of New York State University (SUNY) at Stony Brook. Light-dark cycles were 12 h each daily, with light from 7 a.m. to 7 p.m. Food (Purina Rodent Chow) and water (distilled sterile-filtered water, pH 7) were provided ad libitum. Protocols and procedures were according to the rules of and approved by the SUNY Institutional Animal Care and Use Committee (IACUC).
An acclimation period of 7 days was allowed between the arrival of the animal at the study site before tumor inoculation and experimentation. Mice were inoculated subcutaneously (SC) in the right flank with 2×10^6 human H460 NSCLC or BxPC3 pancreatic cancer cells that were suspended in 0.1 mL of Dulbeco's Phosphate Buffered Salt (PBS) solution using a 1 cc syringe with a 27⅝ gauge needle. Tumor dimensions (length and width) were measured daily before, during and after treatment (using Vernier calipers) and the tumor volume was calculated using the prolate ellipsoid formula: (length×width^2)/2. Treatment with test or control articles began 8 days post tumor cell implantation when the tumor was approximately 300 mm^3.
A similar study was conducted in CD-1 nude mice (n=9) inoculated with 2×10^6 BxPC-3 cells. […]

MFL2 cells = assay: Survival of C57Bl/6 mice with MFL2 syngeneic AML tumors; assay type: in vivo
Description: C57Bl/6 mice were injected into their tail veins with 1 million MFL2 cells (Pardee, T. S. et al., Experimental Hematology, 2011, 39, 473-485) on Day 0 and beginning on Day 7, upon confirmation of engraftment by bioluminescence imaging, were treated by gavage with CPI-613 (300 mg/kg daily except weekends of a 50 mg/mL solution in 0.05 N NaOH in 5% dextrose, adjusted to pH 7.5-8 with 4% glacial acetic acid; 1 animal for the chloroquine experiment), intraperitoneally (IP) with chloroquine (200 μL (ca. 100 mg/kg) daily except weekends of a 10 mg/mL solution in PBS; Chlr; 3 animals), orally with metformin (1 mg/mL in the drinking water with ad lib access), or with a combination of CPI-613 (300 mg/kg daily gavage as above) and either chloroquine (200 μL daily IP as above; 4 animals) or metformin (1 mg/mL ad lib in drinking water as above) and followed for survival. Control animals (1 animal in chloroquine experiment) received both oral and IP vehicles. P value was determined by log rank test.

Baf3-p210 cells = assay: Survival of Balb/c mice with Baf3-p210 syngeneic ALL tumors; assay type: in vivo; conditions: CPI-613 250 mg/kg gavage once daily combined with doxorubicin 3 mg/kg IP for three days; compared to doxorubicin alone; FIG. 4
Description: Balb/c mice were injected into their tail veins with 1 million Baf3-p210 cells on Day 0 and beginning on Day 3, upon confirmation of engraftment by bioluminescence imaging, were treated with saline (control), doxorubicin (3 mg/kg IP in 200 μL PBS), or doxorubicin (3 mg/kg IP in 200 μL PBS) plus CPI-613 (250 mg/kg gavage of a 25 mg/mL solution of CPI-613 in 0.05 N NaOH in 5% dextrose, adjusted to pH 7.5-8 with 4% glacial acetic acid). and followed for survival. Doxorubicin was administered once daily for three consecutive days, and CPI-613 was administered once daily until death. P value was determined by log rank test.

[2] = mouse, in vivo
[3] = after IV dosing; Pardee et al. 2014; cited from earlier work
[4] = tested on: metastatic pancreatic adenocarcinoma; conditions: combined with modified FOLFIRINOX, cited from earlier work
[5] = tested on: myelodysplastic syndrome (MDS), acute myeloid leukemia (AML), Burkitt lymphoma, and cutaneous T-cell lymphoma (CTCL); conditions: IV, days 1 and 4 of weeks 1, 2, 3 of a 4 week cycle, 840 mg/m^2 to 2940 mg/m^2 daily; cited from earlier work
[6] = tested on: relapsed or refractory T-cell lymphoma; conditions: IV, days 1-4, 8, 11, 15, 18 of a 4 week cycle, 2000 mg/m^2 to 2750 mg/m^2, combined with bendamustine 90 mg/m^2; cited from earlier work

O=C(O)CCCCC(CCSCc1ccccc1)SCc1ccccc1 (stereo not drawn)
tumor growth (tumor volume) (Human H460 NSCLC cells): grew much more slowly | tumor growth (tumor volume) [1]: especially pronounced | survival (MFL2 cells; CPI-613 300 mg/kg gavage combined with chloroquine ca. 100 mg/kg IP daily except weekends, FIG. 3A): significantly prolongs survival | survival (MFL2 cells; CPI-613 300 mg/kg gavage combined with metformin 1 mg/mL in drinking water, FIG. 3B): significantly prolongs survival | survival (MFL2 cells; CPI-613 300 mg/kg gavage daily except weekends from Day 7, FIGS. 3A, 3B): significantly prolongs survival | survival (Baf3-p210 cells): significantly prolongs survival | oral bioavailability (in words) [2]: orally bioavailable | half-life [3]: 1 to 2 h | objective response ([4]; IV 500 mg/m^2 on days 1 and 3 of a two week cycle): 11 of 18 | maximum tolerated dose ([4]; IV, days 1 and 3 of a two week cycle): 500 mg/m^2 | efficacy in patients [5]: showed efficacy | efficacy in patients [6]: showed efficacy
